The subject of series [1] is participants with cocaine use disorder. Put plainly: Cocaine self-administration on progressive-ratio task during topiramate-phentermine maintenance. The class given is in vivo, human. The protocol: The maintenance period for each condition was at least seven (7) days. Participants randomized to 50 or 100 mg/day topiramate initially received 12.5 and 25 mg immediate release topiramate, respectively, twice daily (0700 and 1900 hours) for three (3) days. Participants then received their target dose (i.e., 25 and 50 mg BID, respectively) for four (4) days prior to completing the first block of experimental sessions. This dosing regimen allowed participants to acclimate to a lower topiramate dose before receiving their target dose and was the rationale for topiramate being a between-subject variable. Participants randomized to placebo were also maintained for seven (7) days to maintain the study blind, but their capsules contained only cornstarch.
Phentermine (0, 15, 30 mg) was administered once daily at 0700 hours. Within each topiramate cohort, the phentermine doses were tested in ascending order such that the lower dose (15 mg/day) was tested prior to the higher dose (30 mg/day). This dosing sequence was violated twice due to oversight (i.e., one subject in the 0 mg/day topiramate group and the other in the 50 mg/day topiramate group). Both of these participants were initially maintained on 30 mg/day phentermine.
After at least seven (7) days of maintenance on the first topiramate-phentermine condition, participants completed a block of three experimental sessions described below. Maintenance on the assigned condition continued during each block of experimental sessions. Upon completion of the first block of experimental sessions, participants continued maintenance on the assigned topiramate condition, while the phentermine dose was changed to the next condition. Maintenance on the second topiramate-phentermine condition also lasted at least seven (7) days before the next block of experimental sessions was completed. […]
The reinforcing effects of cocaine during maintenance on the topiramate-phentermine combinations were assessed using a progressive-ratio task. […]

Series [2] shares this test system. Briefly: Experimental sessions: cardiovascular measures after cocaine sampling dose during maintenance. Particulars: maintenance on the drug alone.
For series [3] the test system is unchanged. Put plainly: Experimental sessions: subjective effects questionnaires after cocaine sampling dose during maintenance. Particulars: for subjective effects of cocaine: maintenance on the drug alone; for cocaine-increased ratings of High, Like Drug, Active-Alert-Energetic, Rush and Stimulant Subscale: maintenance on topiramate and phentermine, alone or combined.

For series [4] the test system is unchanged. To be noted: in vivo.

The structures appear in SMILES notation. Like-named read-outs stand apart in the source and are kept apart here.

`CC(C)(N)Cc1ccccc1` [phentermine]: the cocaine self-administration result in series [1] (Phentermine alone) is listed as “did not significantly reduce”. For the same compound, the “reinforcing effects of cocaine” value in series [1] (maintenance on the drug alone) is given as “did not significantly alter”. Besides, the “cardiovascular effects of cocaine” value in series [2] was “did not significantly alter”. For the same compound, in series [3], the “subjective effects of cocaine” value is “did not significantly alter”; the “cocaine-increased ratings of High, Like Drug, Active-Alert-Energetic, Rush and Stimulant Subscale” value is recorded as “did not significantly alter”.

In the case of `CC1(C)O[C@@H]2[C@@H](CO[C@@]3(COS(N)(=O)=O)OC(C)(C)O[C@@H]23)O1` [topiramate], the “reduction of cocaine self-administration” value in series [1] (cocaine 40 mg, Topiramate alone (100 mg/day)) stood at 47%. For the same compound, in series [4], the “cardiovascular effects of cocaine” value is listed as “did not alter”. For the same compound, in series [3], the “subjective effects of cocaine” value is recorded as “did not alter”; the “cocaine-increased ratings of High, Like Drug, Active-Alert-Energetic, Rush and Stimulant Subscale” value was “did not significantly alter”.

Values taken from patent publication US20220370406A1, “METHOD OF TREATING STIMULANT USE DISORDER USING A COMBINATION OF TOPIRAMATE AND PHENTERMINE” (University of Kentucky Research Foundation, priority 2019, published 2022).
